Reference: patent US12576155B2, “Senolytic and antiinflammatory prodrugs and methods of use thereof” (priority 2019, dated 2026)

What was measured:
senescent cells = assay: Flow cytometry of apoptosis (annexin V / propidium iodide) in senescent cells; type: cell-based; details: SSK1-treated senescent cells; after 36 hours of treatment
Experimental: Fibroblasts were digested into single cell suspensions by incubation with 0.25% trypsin-EDTA (Invitrogen) at 37° C. for 3-5 min or with accutase at 37° C. for 10 min. Cells were then stained with FITC annexin V and propidium iodide (PI) according to the manufacturer's protocol (FITC Annexin V Apoptosis Detection Kit I, BD Pharmingen™). For chondrocytes Annexin V/7-AAD analysis, the trypsinized live chondrocytes and floating cells were collected, centrifuged and washed with PBS. Cells were stained with the Annexin V Apoptosis Detection Kit (Biolegend, 640934) according to the manufacturer's instruction. Before the flow cytometric analysis, the precision count beads (Biolegend, 424902) were added to count the absolute live cell numbers. Flow cytometry was performed within one hour on an Aria III (BD Biosciences) or FACSVerse (BD Biosciences). Data were analyzed using FlowJo software (FlowJo LLC).

[1] = system: naturally occurring senescent cells of aged mice; assay: SSK1 treatment of naturally aged mice (senescent cells, SASP, physical function, RNA-seq); type: in vivo, C57BL/6 mice
Experimental: All drugs were mixed in 90% PBS, 5% Tween-80 (P1754, Sigma), and 5% polyethylene glycol (PEG) (81172, Sigma) and administered to mice by intraperitoneal (i.p.) injection. For treating bleomycin-injured young mice, SSK1 (0.5 mg/kg) or vehicle were given consecutive two days every week for five weeks. For old mice (20-month-old), SSK1 (0.5 mg/kg), gemcitabine (0.5 mg/kg) or vehicle were administrated for continued 3 days every two weeks. Gemcitabine was purchased from MCE.
Cultured cells were washed once with PBS and fixed in β-galactosidase staining fix solution for 15 min at room temperature. Cells were then washed three times with PBS and incubated with β-galactosidase staining solution (Beyotime Biotechnology) for 16-20 hours at 37° C. For 12-well plates, 1 ml of β-galactosidase staining solution was added to each well. The plate was sealed with Parafilm to prevent evaporation of the staining medium. After the overnight incubation, cells were washed with PBS and observed under a bright field microscope. For β-galactosidase staining of frozen sections, the frozen sections were dried at 37° C. for 20-30 min and then fixed in β-galactosidase staining fix solution for 15 min at room temperature. The frozen sections were washed three times with PBS and incubated with β-galactosidase staining solution overnight at 37° C. After completion of β-galactosidase staining, the sections were stained with eosin for 1-2 min, rinsed under running water for 1 min, differentiated in 1% acid alcohol for 10-20 sec, and washed again under running water for 1 min. Sections were dehydrated in increasing concentrations of alcohols and cleared in xylene. Excess xylene was drained and a coverslip was placed over the section. After drying, the sample was observed under a microscope.
Lung, liver, and kidney frozen sections stained with SA-β-Gal were quantified by ImageJ software (NIH) to measure the SA-β-Gal positive area. The total area was quantified by eosin positive area with ImageJ software (NIH). The relative positive SA-β-Gal positive cells were calculated with the SA-β-Gal positive area divided by the total area. Each mouse was measured with 3-5 regions.
Mouse liver tissues were fixed in 4% paraformaldehyde (DingGuo, AR-0211) for 24 h at room temperature and dehydrated with graded sucrose solution (20% and 30% respectively 24 h) before embedded in OCT compound (Sakura) for cryosection. The embedded tissues were cut and affixed on slides. Before immunohistochemical staining, the sections were fixed in 4% paraformaldehyde (DingGuo, AR-0211) at room temperature for 15 min and blocked with PBS containing 0.25% Triton X-100 (Sigma-Aldrich, T8787) and 2% normal donkey serum (Jackson ImmunoResearch Laboratories, 017-000-121) at room temperature for 1 h. Samples for immunofluorescence staining were incubated with primary antibody: anti-F4/80 antibody (Abcam, ab6640) at 4° C. overnight, washed three times with PBS and then incubated with appropriate secondary antibodies: Alexa Fluor® 488 AffiniPure Donkey Anti-Rat IgG (H+L) (Jackson ImmunoResearch Laboratories, 712-545-150) for 1.5 h at 37° C. Nuclei were stained with Hoechst 33342 (Sigma-Aldrich, B2261).
For quantification of F4/80 positive cells, images were randomly taken at 20× magnification at the same exposure using confocal laser endomicroscopy (LSM 710 NLO &DuoScan System) and then analyzed by ImageJ. Each mouse was measured with at least 6-10 regions.
Total RNA was isolated using the Direct-zol RNA MiniPrep Kit (Zymo Research, R2072). RNA was treated with DNase and converted to cDNA using TransScript First-Strand cDNA Synthesis SuperMix (TransGen Biotech, AT311-03). qPCR was performed using Kapa SYBR® FAST qPCR Kit Master Mix (Kapa Biosystems, KM4101) on a CFX Connect™ Real-Time System or CFX96™ Real-Time System (Bio-Rad). Data were analyzed using the 2^(−ΔΔCt) method. Gapdh was used as a control to normalize the expression of target genes. […]

[2] = system: senescent lung cells from 23-month-old mice; assay: Cell viability, mouse lung fibroblasts of old and young mice; type: cell-based; details: senescent lung cells from 23-month-old mice vs non-senescent lung cells from young mice; increasing doses
Experimental: Mouse embryonic fibroblasts (MEFs) were isolated from E13.5 embryos as described previously (Zhao et al., Cell Stem Cell 23, 31-45 e37([…])). Newborn mouse skin fibroblasts (NBFs) were isolated from the skin of day 1-3 newborn mice. Adult mouse lung fibroblasts were isolated from 2-month-old and 23-month-old mice. Briefly, mouse embryonic tissues, skin and lung were obtained from described donor mice. Then, these tissues were minced with forceps and incubated in 2 mg/ml collagenase IV (Gibco) for 2-4 hours at 37° C. After enzyme treatment, cells were collected by centrifugation and resuspended in high-glucose DMEM (Gibco) supplemented with 10% fetal bovine serum (FBS) and 1% penicillin-streptomycin (Gibco). The three types of mouse primary cells were all cultured in a humidified incubator at 37° C. and 5% CO2.
To test the viability of senescent and non-senescent cells treated with SSK1, cells were stained with a mixture of Hoechst 33342 and propidium iodide (PI) (CA1120, Solarbio) to distinguish living and dead cells. After treatment with the small molecules, the cell culture medium was removed, and the cells were washed once with PBS. […] The plate was incubated at 4° C. for 30 min and observed on a fluorescence microscope or automatic cell imaging system. Viable cells were quantified using a MD Image Xpress Micro XL (Molecular Devices).

[3] = 20-month-old mice, SSK1 0.5 mg/kg i.p. intermittently for 8 weeks
[4] = aged mice, SSK1 0.5 mg/kg vs vehicle
[5] = old female mice, 8 weeks, vs vehicle

CC(=O)OCC1O[C@@H](Oc2ccc(COC(=O)Nc3ccn([C@@H]4O[C@H](CO)C(O)C4(F)F)c(=O)n3)cc2[N+](=O)[O-])C(OC(C)=O)C(OC(C)=O)[C@H]1OC(C)=O (some centres unmarked) [SSK1]
Apoptosis (annexin V / PI) (senescent cells): induced apoptosis in senescent cells | Elimination of β-gal-positive senescent cells vs vehicle, kidney [1, 3]: 3.5 fold | Elimination of β-gal-positive senescent cells vs vehicle, liver [1, 3]: 5.9 fold | Elimination of β-gal-positive senescent cells vs vehicle, lung [1, 3]: 2 fold | GO pathways related to liver function (oxidation-reduction process, metabolic process, fatty acid beta-oxidation, mitochondrion) ([1]; aged livers vs vehicle): up-regulated | Genes associated with inflammatory response, TNFα signaling via NF-κB, IL6 JAK Stat3 signaling and complement (GSEA) ([1]; aged mice livers and kidneys vs vehicle): down regulated | Age-associated signature (GSEA) in aged livers and kidneys ([1]; aged mice vs vehicle): decreased | Expression of senescent markers p16 (in liver) and p21 (in liver and kidney), RT-qPCR ([1]; aged mice vs vehicle): decreased expression | Inflammatory factors IL1α and IL1β in aged liver and IL6 in aged kidneys, RT-qPCR ([1]; aged mice vs vehicle): decreased | F4/80 positive macrophages infiltration in livers (immunofluorescence) ([1]; aged mice, SSK1 0.5 mg/kg): could delete macrophages infiltration | Gene signature associated with senescence (GSEA), livers and kidneys [1, 4]: downregulate | Secretion of SASP factors IL1α, IL6, CXCL1 and TNFα in serum (ELISA) [1, 4]: decreased secretion | Rotarod, treadmill, and grip strength functions vs other senolytic drugs (fisetin, 17-DMAG, ABT263, dasatinib and quercetin) ([1]; aged mice, FIG. 4J): improved the rotarod, treadmill, and grip strength functions when compared to the other senolytic compounds | Body weight ([1]; old female mice, 8 weeks): without significant effect on body weight | Balance beam crossing time [1, 5]: decreased | Grip strength [1, 5]: significantly increased | Maximal rotarod time [1, 5]: significantly increased | Rearing exploration times [1, 5]: significantly increased | Treadmill distance [1, 5]: significantly increased | Rotarod, treadmill, and grip strength performance ([1]; old male mice, SSK1 0.5 mg/kg vs vehicle): same results were also observed | Liver fibrosis (Masson fibrosis staining) ([1]; old mice vs vehicle): attenuate liver fibrosis | Rotarod and treadmill performance after vs before treatment ([1]; old mice, SSK1 0.5 mg/kg): improved over the initial state before treatment | Selective elimination of senescent cells (viable cells) [2]: specifically eliminated these senescent cells
